One series can be described thus: Solubility. The series is classed as physicochemical.
A short description of series [1]: Blood glucose and organ glycogen upon predetermined (2.5 h) cold treatment (adaptation experiment). The series is classed as in vivo, mice. The note with it: no adaptation, preparation 1 hour prior to the testing effect, 2.5 h at -14° C.
The nature of series [2]: Toxicity upon intraperitoneal administration. The note with it: mouse, in vivo, ip.

1 molecule from patent publication US4691046A, “Butanedioic acid mono [(2-dimethylamino] ethyl ester)succinate” (Institut Organicheskoi Khimii Ordena Lenina I Ordena …, priority 1986, dated 1987) can be followed below.

`CN(C)CCOC(=O)CCC(=O)O` [Compound of this invention, butanedioic acid mono[(2-dimethylamino)ethyl ester]succinate]: in the series “Solubility” (acetone), the solubility in acetone entry is recorded as “sparingly soluble”. Moreover, the solubility in ethanol result in “Solubility” (ethanol) was “sparingly soluble”. Moreover, the solubility in water result in the series “Solubility” (water) is on record as “well soluble”. In addition, the “Glycogen, heart” value in series [1] (control 1.7 ± 0.2) was 2.2 ± 3.4 mg/g. Moreover, in series [1] (control 6.7 ± 0.4), the “Glycogen, liver” value is recorded as 7.1 ± 2.6 mg/g. Further, in series [1] (control 37 ± 6), the Blood glucose was found to be 59 ± 2.6 mg. %. Moreover, the LD50 (in general, the dose expected to kill half of the subjects tested) in series [2] was found to be 3040 mg/kg.
